Assay results: PubChem BioAssay AID1845200 (Molecular Pharmacology Branch, DTP, NCI, 2023)
Active and inactive are the calls of the source. How the source made its calls: active means viability on the fitted dose curve at most 10% of control; inactive means the rest.

System: ASPS-1 complex tumor spheroids, viability
Assay: Anticancer human tumor ASPS-1 cell line growth inhibition;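 further: spheroids exposed to agents for 7 days after 3 days of growth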;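 on viability, T/C: 100% = DMSO vehicle treated spheroids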
Conditions: for IC50: curve of first compound; for viability, T/C: stronger effect = lower value
Source text: Multicellular complex tumor spheroid response to DNA repair inhibitors in combination with DNA-damaging drugs
This study explores the anticancer activities of DNA-damaging drugs and inhibitors of DNA damage repair, both as single agents and in combinations. Complex tumor spheroids comprised of malignant cells, endothelial cells and mesenchymal stem cells served as an in vitro model for human solid tumors. This model system incorporates physiologically relevant features and patient-derived or established malignant cell lines with clinically relevant genetic alterations from many tumor types. Twenty-six patient-derived or established malignant cell lines were evaluated representing sarcoma, melanoma, small cell lung cancer (SCLC), non-small cell lung cancer (NSCLC), as well as bladder, ovarian and pancreatic cancers. The concentration ranges selected for each drug and investigational agent were based upon clinically achievable concentrations if the clinical Cmax of the agent was known.
Compounds. The drugs and compounds olaparib (NSC753686), talazoparib (NSC767125), berzosertib (NSC777718), elimusertib (NSC800525), nedisertib (NSC802822), VX-984 (NSC792969), AZD-1390 (NSC803789), temozolomide (NSC362856), topotecan (NSC609699), trabectedin (NSC813783), staurosporine (NSC755774), and gemcitabine (NSC613327) were obtained from the National Cancer Institute (NCI) Developmental Therapeutics Program Chemical Repository. The FDA-approved anticancer drug set is available from the Developmental Therapeutics Program at https://dtp.cancer.gov/organization/dscb/obtaining/available_plates.htm. […] The stock solutions were prepared in dimethyl sulfoxide (DMSO, Sigma-Aldrich, St. Louis, MO, cat. D2650) at 400-fold the tested concentration and stored at -70 degrees C. Prior to their use, the stock solutions were diluted in fresh medium and the final DMSO concentration in the assay was 0.25% (v/v). All drugs and investigational agents were tested over a range starting from a high concentration at or near the clinical Cmax and decreasing in half-log increments. If the clinical Cmax for an agent had not been determined, the highest concentration tested was 10 microM.
Cell Lines. The patient-derived cancer cell (PDC) lines: 156681-154-R-J1-PDC, 283228-195-R-J1-PDC, 287954-098-R-J1-PDC, 292921-168-R-J2-PDC, 349418-098-R-PDC, 425362-245-T-J1-PDC, 556581-035-R-J1-PDC, and BL0293-F563-PDC were received from the NCI Patient-Derived Models Repository (PDMR, https://pdmr.cancer.gov). The established cell lines HS-SY-2 (RRID:CVCL_8719), MPNST, and SYO-1 (RRID:CVCL_7146) were obtained from the Sloan Kettering Institute. The alveolar soft parts sarcoma cell line ASPS-1 (RRID:CVCL_S738) was established at the NCI and grown from internal seed stocks. The following established cell lines were purchased from the American Type Culture Collection (ATCC, Manassas, VA): G-401 (ATCC, cat. CRL-1441, RRID:CVCL_0270), SW982 (ATCC, cat. HTB-93, RRID:CVCL_1734), VA-ES-BJ (ATCC, cat. CRL-2138, RRID:CVCL_1785), NCI-H719 (ATCC, cat. CRL-5837, RRID:CVCL_1582), NCI-H196 (ATCC, cat. CRL-5823, RRID:CVCL_1509), NCI-H841 (ATCC, cat. CRL-5845, RRID:CVCL_1595), NCI-H1618 (ATCC, cat. CRL-5879, RRID:CVCL_1480), NCI-H1876 (ATCC, cat. CRL-5902, RRID:CVCL_1503), DMS 114 (ATCC, cat. CRL-2066; RRID:CVCL_1174), NCI-H211 (ATCC, cat. CRL-5824; RRID:CVCL_1529), and SW 1271 (ATCC, cat. CRL-2177, RRID:CVCL_1716). The small cell lung cancer cell line COR-L88 was purchased from Sigma-Aldrich (cat. 92031917-1VL, RRID:CVCL_1141). The non-small cell lung cancer cell lines NCI-H226 (RRID:CVCL_1544) and NCI-H322M (RRID:CVCL_1557) were established at the NCI and grown from internal seed stocks. Pooled donor human umbilical vein endothelial cells (HUVEC, Lonza, cat. CC-2519) and human mesenchymal stem cells (hMSC, Lonza, cat. PT-2501) were purchased from Lonza (Walkersville, MD).
Cell Culture. All cells were maintained in an incubator at 37 degrees C and 5% CO2 with 95% humidity. […]

With `Cc1cc(C)c(CNC(=O)c2cc(-c3ccc(CN4CCOCC4)cc3)cc3c2cnn3C2CCCC2)c(=O)[nH]1` + CC[C@@]1(O)C(=O)OCc2c1cc1n(c2=O)Cc2cc3c(CN(C)C)c(O)ccc3nc2-1 the IC50 (second compound 0.003 µM) was over 10 µM, the IC50 (second compound 0.00949 µM) was over 10 µM and the IC50 (second compound 0.03 µM) was over 10 µM. It also gave an IC50 (second compound 0.0949 µM) of 0.777 µM, an IC50 (second compound 0.3 µM) of under 0.0316 µM and a viability, T/C (second compound 0.003 µM, first compound 0.0316 µM) of 100%. The viability, T/C (second compound 0.003 µM, first compound 0.1 µM) was 106%, the viability, T/C (second compound 0.003 µM, first compound 0.316 µM) was 94.2% and the viability, T/C (second compound 0.003 µM, first compound 1 µM) was 93.7%. For the same compound, the viability, T/C (second compound 0.003 µM, first compound 3.16 µM) was 85.2%, the viability, T/C (second compound 0.003 µM, first compound 10 µM) was 81.2% and the viability, T/C (second compound 0.00949 µM, first compound 0.0316 µM) was 107%. For the same compound, the viability, T/C (second compound 0.00949 µM, first compound 0.1 µM) was 114%, the viability, T/C (second compound 0.00949 µM, first compound 0.316 µM) was 107% and the viability, T/C (second compound 0.00949 µM, first compound 1 µM) was 95.2%. The viability, T/C (second compound 0.00949 µM, first compound 3.16 µM) was 87.2%, the viability, T/C (second compound 0.00949 µM, first compound 10 µM) was 77.8% and the viability, T/C (second compound 0.03 µM, first compound 0.0316 µM) was 95.8%. It also gave a viability, T/C (second compound 0.03 µM, first compound 0.1 µM) of 98.7%, a viability, T/C (second compound 0.03 µM, first compound 0.316 µM) of 89.9% and a viability, T/C (second compound 0.03 µM, first compound 1 µM) of 79.9%. For the same compound, the viability, T/C (second compound 0.03 µM, first compound 3.16 µM) was 66%, the viability, T/C (second compound 0.03 µM, first compound 10 µM) was 74% and the viability, T/C (second compound 0.0949 µM, first compound 0.0316 µM) was 59%. It also gave a viability, T/C (second compound 0.0949 µM, first compound 0.1 µM) of 55.3%, a viability, T/C (second compound 0.0949 µM, first compound 0.316 µM) of 52.3% and a viability, T/C (second compound 0.0949 µM, first compound 1 µM) of 46.2%. The viability, T/C (second compound 0.0949 µM, first compound 3.16 µM) was 46.5%, the viability, T/C (second compound 0.0949 µM, first compound 10 µM) was 52.8% and the viability, T/C (second compound 0.3 µM, first compound 0.0316 µM) was 49.5%. The viability, T/C (second compound 0.3 µM, first compound 0.1 µM) was 47%, the viability, T/C (second compound 0.3 µM, first compound 0.316 µM) was 44.4% and the viability, T/C (second compound 0.3 µM, first compound 1 µM) was 45.6%. It also gave a viability, T/C (second compound 0.3 µM, first compound 3.16 µM) of 46.4% and a viability, T/C (second compound 0.3 µM, first compound 10 µM) of 56.9%.
Compound `Cc1sc2c(c1C)C(c1ccc(Cl)cc1)=NC(CC(=O)Nc1ccc(O)cc1)c1nnc(C)n1-2` (stereo not given) + CC[C@@]1(O)C(=O)OCc2c1cc1n(c2=O)Cc2cc3c(CN(C)C)c(O)ccc3nc2-1 has an IC50 (second compound 0.003 µM) of over 3 µM, an IC50 (second compound 0.00949 µM) of over 3 µM and an IC50 (second compound 0.03 µM) of over 3 µM. For the same compound, the IC50 (second compound 0.0949 µM) was over 3 µM, the IC50 (second compound 0.3 µM) was 0.55 µM and the viability, T/C (second compound 0.003 µM, first compound 0.00949 µM) was 105%. For the same compound, the viability, T/C (second compound 0.003 µM, first compound 0.03 µM) was 111%, the viability, T/C (second compound 0.003 µM, first compound 0.0949 µM) was 106% and the viability, T/C (second compound 0.003 µM, first compound 0.3 µM) was 107%. It also gave a viability, T/C (second compound 0.003 µM, first compound 0.949 µM) of 94.4%, a viability, T/C (second compound 0.003 µM, first compound 3 µM) of 84.2% and a viability, T/C (second compound 0.00949 µM, first compound 0.00949 µM) of 114%. For the same compound, the outcome (second compound 0.00949 µM, first compound 0.03 µM) was “inactive”, the viability, T/C (second compound 0.00949 µM, first compound 0.0949 µM) was 118% and the viability, T/C (second compound 0.00949 µM, first compound 0.3 µM) was 109%. The viability, T/C (second compound 0.00949 µM, first compound 0.949 µM) was 97.8%, the viability, T/C (second compound 0.00949 µM, first compound 3 µM) was 88.5% and the viability, T/C (second compound 0.03 µM, first compound 0.00949 µM) was 100%. The viability, T/C (second compound 0.03 µM, first compound 0.03 µM) was 105%, the viability, T/C (second compound 0.03 µM, first compound 0.0949 µM) was 102% and the viability, T/C (second compound 0.03 µM, first compound 0.3 µM) was 94.4%. For the same compound, the viability, T/C (second compound 0.03 µM, first compound 0.949 µM) was 89.6%, the viability, T/C (second compound 0.03 µM, first compound 3 µM) was 77.4% and the viability, T/C (second compound 0.0949 µM, first compound 0.00949 µM) was 64.2%. For the same compound, the viability, T/C (second compound 0.0949 µM, first compound 0.03 µM) was 71.7%, the viability, T/C (second compound 0.0949 µM, first compound 0.0949 µM) was 77.2% and the viability, T/C (second compound 0.0949 µM, first compound 0.3 µM) was 71.2%. It also gave a viability, T/C (second compound 0.0949 µM, first compound 0.949 µM) of 66.9%, a viability, T/C (second compound 0.0949 µM, first compound 3 µM) of 58.8% and a viability, T/C (second compound 0.3 µM, first compound 0.00949 µM) of 52.1%. It also gave a viability, T/C (second compound 0.3 µM, first compound 0.03 µM) of 55.2%, a viability, T/C (second compound 0.3 µM, first compound 0.0949 µM) of 58.7% and a viability, T/C (second compound 0.3 µM, first compound 0.3 µM) of 55.3%. It also gave a viability, T/C (second compound 0.3 µM, first compound 0.949 µM) of 44.5% and a viability, T/C (second compound 0.3 µM, first compound 3 µM) of 33.7%.
